The test system of data set [1] is metastatic triple-negative breast cancer. Set-up: method as in PMID 34476645. As to conditions: in combination with paclitaxel; ref [35]; cited from earlier work.
Data set [2] relates to CRC. The conditions noted are these: CRC in vivo; ref [13], [14]; cited from earlier work.
Data set [3] relates to liver metastases. Also noted: method as in PMID 21035946. The conditions noted are these: liver metastases in vivo; ref [17]; cited from earlier work.
The nature of data set [4]: Navarixin pharmacokinetics in combination with pembrolizumab. It is filed as in vivo, human. As to conditions: for tlast: median (range); for AUC(0-inf) / AUC(0-t) / Cmax: human, plasma, oral, geometric mean (% geometric CV); for Geometric mean trough concentration: all tumor types combined. The source says: Primary endpoints were objective response rate (ORR; proportion of patients with confirmed complete or partial response) by RECIST v1.1 as assessed by the investigator and safety based on the occurrence of dose-limiting toxicities (DLTs), adverse events (AEs), and treatment discontinuations because of AEs. Secondary endpoints included investigator-assessed ORR by immune-related RECIST (iRECIST), investigator-assessed progression-free survival (PFS; time from first dose of study drug until the first documented disease progression or death from any cause) by RECIST v1.1 and iRECIST, overall survival (OS; time from first dose of study drug until death from any cause), pharmacodynamics (assessed via changes in ANC), and PK of navarixin when administered in combination with pembrolizumab.
Blood samples for assessment of ANC were collected predose on day 1 of every cycle; between 6 and 12 hours after dosing on days 1, 3, and 8 of cycle 1; and between 6 and 12 hours after dosing on day 1 of cycle 2. Blood samples for assessment of navarixin pharmacokinetic parameters were collected predose and at 1, 2, 4, 6, and between 8 and 12 hours after dosing on day 1 of cycle 1; predose and between 6 and 12 hours after dosing on days 3 and 8 of cycle 1; predose and at 1, 2, 4, 6, and between 8 and 12 hours after dosing on day 1 of cycle 2; and predose during cycles 3 and 4. […]

Data set [5] concerns absolute neutrophil count (ANC) and sputum neutrophil count. Set-up: method as in PMID 25695403, PMID 22702508. As to conditions: patients with chronic obstructive pulmonary disease and asthma; ref [10], [11]; cited from earlier work.
In data set [6] the test system is metastatic castration-resistant prostate cancer (CRPC) preclinical models. Also noted: method as in PMID 31801883. The conditions noted are these: ref [6]; cited from earlier work.
Data set [7] has as its system triple-negative breast cancer cells. Also noted: method as in PMID 30396947, PMID 29749433. The conditions noted are these: ref [15], [16]; cited from earlier work.
The test system of data set [8] is melanoma. As to conditions: melanoma in vivo; ref [13], [14]; cited from earlier work.
Data set [9] concerns pancreatic ductal adenocarcinoma cells. Set-up: method as in PMID 30396947, PMID 29749433. As to conditions: ref [15], [16]; cited from earlier work.
In data set [10] the test system is treatment-refractory metastatic CRPC. Set-up: method as in PMID 31774688. The conditions noted are these: pembrolizumab monotherapy, 9/199, ref [22]; cited from earlier work.
For data set [11], the system named is mismatch repair–proficient CRC. Also noted: method as in PMID 26028255. As to conditions: 18 patients with mismatch repair–proficient CRC; ref [21]; cited from earlier work.
Data set [12] has as its system previously treated advanced NSCLC. Set-up: method as in PMID 31154919. The conditions noted are these: pembrolizumab monotherapy; previously treated advanced NSCLC cohort; 103/449; ref [24]; cited from earlier work.
Where [13] appears, read: CRPC, navarixin 30 mg + pembrolizumab 200 mg, Cycle 1 day 1, n=20.
[14] abbreviates: CRPC, navarixin 30 mg + pembrolizumab 200 mg, Cycle 2 day 1 (steady state), n=18.
Where [15] appears, read: CRPC, navarixin 100 mg + pembrolizumab 200 mg, Cycle 1 day 1, n=20.
Setting [16] is: CRPC, navarixin 100 mg + pembrolizumab 200 mg, Cycle 2 day 1 (steady state), n=17.
The mark [17] stands for this setting: MSS CRC, navarixin 30 mg + pembrolizumab 200 mg, Cycle 1 day 1, n=19.
Setting [18] is: MSS CRC, navarixin 30 mg + pembrolizumab 200 mg, Cycle 2 day 1 (steady state), n=15.
Setting [19] is: MSS CRC, navarixin 100 mg + pembrolizumab 200 mg, Cycle 1 day 1, n=21.
Where [20] appears, read: MSS CRC, navarixin 100 mg + pembrolizumab 200 mg, Cycle 2 day 1 (steady state), n=18.
[21] abbreviates: NSCLC, navarixin 30 mg + pembrolizumab 200 mg, Cycle 1 day 1, n=12.
Where [22] appears, read: NSCLC, navarixin 30 mg + pembrolizumab 200 mg, Cycle 2 day 1 (steady state), n=12.
[23] abbreviates: NSCLC, navarixin 100 mg + pembrolizumab 200 mg, Cycle 1 day 1, n=13.
Where [24] appears, read: NSCLC, navarixin 100 mg + pembrolizumab 200 mg, Cycle 2 day 1 (steady state), n=11.

As a reminder, the AUC(0-inf) is the area under the concentration-time curve extrapolated to infinity. Broadly, the AUC(0-t) is exposure summed from dosing to a finite time, without extrapolation to infinity. By Cmax is commonly meant the highest concentration seen after dosing.

Regarding `CC(C)Cc1ccc([C@@H](C)C(=O)NS(C)(=O)=O)cc1` [reparixin], in [1], the “Benefit of combination therapy compared with paclitaxel alone” value is reported as “no benefit”.

On to `CC[C@@H](Nc1c(Nc2cccc(C(=O)N(C)C)c2O)c(=O)c1=O)c1ccc(C)o1` [Navarixin], for which the “Effect on tumor growth” value in data set [2] and in [8] was “inhibited tumor growth” in each case. The “Effect on apoptosis of malignant cells” value in [3] was “induced apoptosis”. The tlast in [4] (setting [13]) is given as 8.00 (7.83–10.00) h; in [4] (setting [14]) it was 8.01 (6.50–8.70) h; in data set [4] (setting [15]) it was 8.00 (7.37–8.08) h; in [4] (setting [16]), 8.00 (5.93–8.17) h; in data set [4] (setting [17]) it was 8.0 (7.27–8.33) h; in data set [4] (setting [18]), 7.93 (6.00–8.17) h. Further, the tlast in data set [4] (setting [19]) is recorded as 8.00 (7.12–10.02) h; in data set [4] (setting [20]) it was 8.00 (7.87–8.13) h; in [4] (setting [21]), 8.00 (7.83–8.25) h; in data set [4] (setting [22]) it was 8.00 (7.80–8.08) h; in [4] (setting [23]) it was 8.00 (6.00–8.07) h; in data set [4] (setting [24]) it was 8.00 (6.03–8.08) h. Moreover, the “AUC0-∞, navarixin 100 mg versus navarixin 30 mg” value in [4] (across all tumor types) is on record as “approximately 2.5 fold”. Also, the AUC(0-inf) in data set [4] (CRPC, navarixin 30 mg + pembrolizumab 200 mg, Cycle 1 day 1, n=19) was found to be 376 ng·h/mL; in data set [4] (setting [14]), 534 ng·h/mL; in data set [4] (CRPC, navarixin 100 mg + pembrolizumab 200 mg, Cycle 1 day 1, n=18), 954 ng·h/mL; in data set [4] (CRPC, navarixin 100 mg + pembrolizumab 200 mg, Cycle 2 day 1 (steady state), n=11), 1340 ng·h/mL; in [4] (MSS CRC, navarixin 30 mg + pembrolizumab 200 mg, Cycle 1 day 1, n=17) it was 482 ng·h/mL; in data set [4] (MSS CRC, navarixin 30 mg + pembrolizumab 200 mg, Cycle 2 day 1 (steady state), n=10), 584 ng·h/mL. Besides, the total exposure AUC(0-inf) was found to be 1120 ng·h/mL in [4] (MSS CRC, navarixin 100 mg + pembrolizumab 200 mg, Cycle 1 day 1, n=16); 954 ng·h/mL in data set [4] (MSS CRC, navarixin 100 mg + pembrolizumab 200 mg, Cycle 2 day 1 (steady state), n=9); 469 ng·h/mL in data set [4] (NSCLC, navarixin 30 mg + pembrolizumab 200 mg, Cycle 1 day 1, n=10); 450 ng·h/mL in data set [4] (NSCLC, navarixin 30 mg + pembrolizumab 200 mg, Cycle 2 day 1 (steady state), n=10); 1230 ng·h/mL in data set [4] (NSCLC, navarixin 100 mg + pembrolizumab 200 mg, Cycle 1 day 1, n=9); 1360 ng·h/mL in [4] (NSCLC, navarixin 100 mg + pembrolizumab 200 mg, Cycle 2 day 1 (steady state), n=7). Further, the exposure AUC(0-t) in [4] (setting [13]) was 363 ng·h/mL; in data set [4] (setting [14]), 457 ng·h/mL; in [4] (setting [15]) it was 853 ng·h/mL; in [4] (setting [16]) it was 925 ng·h/mL; in [4] (setting [17]) it was 464 ng·h/mL; in [4] (setting [18]), 443 ng·h/mL. For the same molecule, the area under the curve AUC(0-t) in data set [4] (setting [19]) was 1070 ng·h/mL; in data set [4] (setting [20]), 928 ng·h/mL; in data set [4] (setting [21]), 427 ng·h/mL; in data set [4] (setting [22]), 451 ng·h/mL; in data set [4] (setting [23]), 1140 ng·h/mL; in data set [4] (setting [24]), 1080 ng·h/mL. Moreover, the Cmax in data set [4] (setting [14]) was determined as 191 ng/mL; in data set [4] (setting [16]), 272 ng/mL; in data set [4] (setting [17]), 162 ng/mL; in data set [4] (setting [18]), 147 ng/mL; in data set [4] (setting [19]), 354 ng/mL; in [4] (setting [20]), 276 ng/mL. Moreover, the Cmax turned out to be 181 ng/mL in [4] (setting [21]); 179 ng/mL in data set [4] (setting [22]); 324 ng/mL in data set [4] (setting [23]); 338 ng/mL in data set [4] (setting [24]); 156 ng/mL in [4] (male, CRPC, navarixin 30 mg + pembrolizumab 200 mg, Cycle 1 day 1, n=20); 298 ng/mL in data set [4] (male, CRPC, navarixin 100 mg + pembrolizumab 200 mg, Cycle 1 day 1, n=20). Further, the “Geometric mean trough concentration” value in [4] (navarixin 30 mg, steady state) is reported as 7.71 ng/mL; in data set [4] (navarixin 100 mg, steady state), 14.5 ng/mL. The “Steady-state exposure, 100-mg dose compared with 30-mg dose” value in [4] (steady state) is given as “approximately 2.5 fold”. Further, in data set [5], the “Effect on neutrophil counts” value was “reductions in absolute neutrophil count (ANC) as well as sputum neutrophil count”. The “Effect on neuroendocrine lineage plasticity and enzalutamide resistance” value in data set [6] is “reversed neuroendocrine lineage plasticity and enzalutamide resistance”. Moreover, the “Effect on colony formation” value in data set [7] and in data set [9] was “inhibited colony formation” each time.

pembrolizumab: the ORR is 5% in [10], 0% in [11] and 23% in data set [12].

The record behind these values is article PMC11076327, “CXCR2 antagonist navarixin in combination with pembrolizumab in select advanced solid tumors: a phase 2 randomized trial” (Investigational New Drugs, 2024).
